According to publication PMC4975316 (EJIFCC, 2011):

Target: T1, β2GPI (Homo sapiens, UniProt P02749)
T1 sequence (P02749 20-345): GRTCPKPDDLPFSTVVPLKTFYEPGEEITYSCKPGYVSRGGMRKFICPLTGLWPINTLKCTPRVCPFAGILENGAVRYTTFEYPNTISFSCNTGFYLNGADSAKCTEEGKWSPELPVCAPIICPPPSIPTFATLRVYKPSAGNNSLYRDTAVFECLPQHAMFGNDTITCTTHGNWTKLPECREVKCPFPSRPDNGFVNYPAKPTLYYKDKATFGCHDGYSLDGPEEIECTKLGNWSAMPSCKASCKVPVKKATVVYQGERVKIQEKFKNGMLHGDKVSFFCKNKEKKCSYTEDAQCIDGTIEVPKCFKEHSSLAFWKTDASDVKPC
Assay: Surface plasmon resonance
Format: binding
Settings: inferred from extremely fast dissociation; 0.005% PBST pH 7.4, 25°C

KVWTIPRGGGS
Affinity towards β2GPI indicated by dissociation (SPR): low affinity towards β2GPI
